Measurements taken from publication PMC4573514, “Identification and characterization of [6]-shogaol from ginger as inhibitor of vascular smooth muscle cell proliferation” (Molecular Nutrition & Food Research, 2015).
“Also recorded” adds a separate entry of the source.

Columns and labels:
HUVECtert = experiment: Resazurin conversion assay in endothelial cells; type: cell-based, human; settings: for Resazurin metabolic conversion in HUVECs (endothelial viability/proliferation): HUVECtert, 48 h, n.s. = no significant difference, up to stated concentration
Method: VSMC were seeded in 96-well plates at 5 × 10^3 cells/well. After 24 h, cells were serum-starved for 24 h to render them quiescent. Quiescent cells were pretreated for 30 min with ginger extract, compounds, or vehicle (0.1% DMSO) as indicated, and subsequently stimulated for 48 h with PDGF-BB (20 ng/mL). […] Total metabolic activity was measured by monitoring the increase in fluorescence at a wavelength of 590 nm using an excitation wavelength of 535 nm in a 96-well plate reader (Tecan GENios Pro). HUVECtert cells,[20] were seeded in 96-well plates at 5 × 10^3 cells/well. After 24 h, HUVECtert cells were treated with compounds or vehicle (0.1% DMSO) as indicated and incubated for 48 h. Then, cells were washed with PBS and incubated in culture medium containing 10 μg/mL resazurin for 2 h. The detection step is performed as described above.

VSMC [1] = experiment: Resazurin conversion assay, PDGF-BB-induced VSMC proliferation; type: cell-based, rat; settings: for IC50: VSMC
Method: VSMC were seeded in 96-well plates at 5 × 10^3 cells/well. After 24 h, cells were serum-starved for 24 h to render them quiescent. Quiescent cells were pretreated for 30 min with ginger extract, compounds, or vehicle (0.1% DMSO) as indicated, and subsequently stimulated for 48 h with PDGF-BB (20 ng/mL). To measure the number of metabolically active VSMC by resazurin conversion,[19], cells were washed with PBS and incubated in serum-free medium containing 10 μg/mL resazurin for 2 h. Total metabolic activity was measured by monitoring the increase in fluorescence at a wavelength of 590 nm using an excitation wavelength of 535 nm in a 96-well plate reader (Tecan GENios Pro). HUVECtert cells,[20] were seeded in 96-well plates at 5 × 10^3 cells/well. After 24 h, HUVECtert cells were treated with compounds or vehicle (0.1% DMSO) as indicated and incubated for 48 h. Then, cells were washed with PBS and incubated in culture medium containing 10 μg/mL resazurin for 2 h. The detection step is performed as described above.

VSMC [2] = experiment: Assessment of cytotoxicity by LDH release; type: cell-based; settings: PDGF-BB 20 ng/mL, 24 h, n.s. = no significant difference, up to stated concentration
Method: VSMC were seeded in 96-well plates at 5 × 10^3 cells/well. Twenty-four hours later, cells were serum starved for 24 h to render them quiescent. Quiescent cells were pretreated for 30 min with compounds, or vehicle (0.1% DMSO) as indicated, and subsequently stimulated for 24 h with PDGF-BB (20 ng/mL). Loss of cell membrane integrity as a sign for cell death can be quantified by the release of the soluble cytosolic protein lactate dehydrogenase (LDH),[23]. For this, the supernatant of the treated cells was assessed for LDH activity. For estimation of the total LDH, identically treated samples were incubated for 45 min in the presence of 1% Triton X-100. The released and total LDH enzyme activity was measured for 30 min at the dark in the presence of 4.5 mg/mL lactate, 0.56 mg/mL NAD+, 1.69 U/mL diaphorase, 0.004% w/v BSA, 0.15% w/v sucrose, and 0.5 mM 2-p-iodophenyl-3-nitrophenyl tetrazolium chloride. The enzyme reaction was stopped with 1.78 mg/mL oxymate and the absorbance was measured at 490 nm. Potential effects on cell viability were estimated as percentage of extracellular LDH enzyme activity. The cytotoxic natural product digitonin (100 μg/mL) was used as a positive control.

VSMC [3] = experiment: Crystal violet biomass staining, PDGF-BB-stimulated VSMC; type: cell-based; settings: Rattus norvegicus, PDGF-BB 20 ng/mL, 48 h
Method: VSMC were seeded in 96-well plates at 5 × 10^3 cells/well. Twenty-four hours later, cells were serum starved for 24 h to render them quiescent. Quiescent cells were pretreated for 30 min with ginger extract, compounds, or vehicle (0.1% DMSO) as indicated and subsequently stimulated for 48 h with PDGF-BB (20 ng/mL). To determine the total biomass by crystal violet staining, cells were then incubated in 100 μL of crystal violet staining solution (0.5% crystal violet, 20% methanol) for 15 min and then washed with ddH2O. After drying, 100 μL EtOH/Na-citrate solution were added (EtOH: 0.1M Na-citrate = 1:1) and the absorbance of the samples was measured at 595 nm in a 96-well plate reader (Tecan sunrise).

VSMC [4] = experiment: BrdU incorporation assay (de novo DNA synthesis); type: cell-based; settings: Rattus norvegicus, PDGF-BB 20 ng/mL, read-out: Inhibition of PDGF-stimulated DNA synthesis, BrdU incorporation (IC50)
Method: VSMC were seeded in 96-well plates at 5 × 10^3 cells/well. Twenty-four hours later, cells were serum starved for 24 h to render them quiescent. Quiescent cells were pretreated for 30 min with compounds, or vehicle (0.1% DMSO) as indicated and subsequently stimulated with PDGF-BB (20 ng/mL). To estimate de novo DNA synthesis in VSMC [21],[22], BrdU was added 2 h after PDGF stimulation, and the incorporation amount was determined 22 h afterwards according to the manufacturer's instructions (Roche Diagnostics).

VSMC [5] = experiment: Cell-cycle analysis by PI staining and flow cytometry; type: cell-based, rat; settings: 10 μM, PDGF-BB 20 ng/mL 16 h, PI stained nuclei
Method: VSMC were seeded in 12-well plates at 1 × 10^4 cells/well. Twenty-four hours later, cells were serum starved for 24 h to render them quiescent. Quiescent cells were preincubated with [6]-shogaol (10 μM) or vehicle ([…]) for 30 min. PDGF-BB (20 ng/mL) was added, and 16 h later cells were trypsinized, washed once with PBS, and resuspended in a hypotonic propidium iodide (PI) solution containing 0.1% v/v Triton X-100, 0.1% w/v sodium citrate, and 50 μg/mL PI. After incubation at 4°C overnight, PI-stained nuclei were analyzed by flow cytometry (excitation 488 nm, emission 585 nm; FACScalibur; BD Biosciences, Germany).

HO-1 = experiment: Immunoblot analysis of HO-1 expression in VSMC; type: cell-based, rat; settings: 3 and 10 μM, PDGF-BB 20 h
Method: (§1) Cells (MEF or VSMC) were seeded onto six-well plates ((3–4) × 10^5 cells/well). Twenty-four hours later, MEF were treated with vehicle (0.1% DMSO) or [6]-shogaol at the indicated concentrations for 20 h; VSMC were serum starved for another 24 h, then quiescent cells were pretreated for 30 min with vehicle (0.1% DMSO) or [6]-shogaol as indicated and subsequently stimulated for 20 h with PDGF-BB (20 ng/mL). Then, cells were lysed and protein extracts were subjected to SDS-PAGE electrophoresis and immunoblot analysis as described,[22]. Proteins were visualized using enhanced chemiluminescence reagent and an LAS-3000 luminescent image analyzer (Fujifilm) with AIDA software (Raytest) for densitometric evaluation.

[6] = design: method as in PMID 19201263; settings: rats, single oral administration of ginger oleoresin 300 mg/kg; ref [39]; cited from earlier work
Nrf2/HO-1 = experiment: Immunoblot analysis of HO-1 in WT and Nrf2-/- mouse embryonic fibroblasts; type: cell-based; settings: 10 or 3 μM
Method: as §1

[7] = Rattus norvegicus, 48 h, PDGF-BB 20 ng/mL, 48 h, read-out: Resazurin metabolic conversion (IC50)

IC50 (VSMC [3]) [µM]	SMILES	Resazurin metabolic conversion in HUVECs (endothelial viability/proliferation) (HUVECtert)	Cell death (LDH release) (VSMC [2])	IC50 (VSMC [1]; [7]) [µM]	also measured
–	CC(=O)O[C@H]1C(=O)[C@@]2(C)[C@H]([C@H](OC(=O)c3ccccc3)[C@]3(O)C[C@H](OC(=O)[C@H](O)[C@@H](NC(=O)c4ccccc4)c4ccccc4)C(C)=C1C3(C)C)[C@]1(OC(C)=O)CO[C@@H]1C[C@@H]2O [paclitaxel, reference compound]	–	–	–	IC50 (HUVECtert; Homo sapiens, Endothelial cell, endothelial cells, data not shown, read-out: Anti-proliferative effect in endothelial cells (IC50)): 0.004 µM; IC50 (VSMC [1]; Rattus norvegicus, data not shown, read-out: Anti-proliferative effect in VSMC (IC50)): 0.108 µM
4.11	CCCCCCCC(O)CCc1ccc(O)c(OC)c1 (racemic) [rac-[6]-Dihydroparadol, rac-[6]-dihydroparadol]	n.s. (up to 30 μM)	n.s. (up to 30 μM)	10	–
8.77	CCCCC[C@H](O)CC(=O)CCc1ccc(O)c(OC)c1 [[6]-Gingerol, [6]-gingerol]	n.s. (up to 30 μM)	n.s. (up to 100 μM)	13.2	–
1.13	CCCCCC=CC(=O)CCc1ccc(O)c(OC)c1 [[6]-Shogaol, [6]-shogaol]	n.s. (up to 10 μM)	n.s. (up to 10 μM)	2.7	Resazurin metabolic conversion in HUVECs (endothelial viability/proliferation) (HUVECtert; listed as [6]-shogaol): did not interfere with endothelial cell proliferation; also recorded: did obviously not impair endothelial viability and proliferation; IC50 (VSMC [4]): 3 µM; Cell-cycle distribution (VSMC [5]): counteracted the PDGF-induced transition of VSMC from the G0/G1 cell-cycle phase to the G2/M phase; HO-1 levels compared to vehicle treated cells (HO-1): significantly elevated HO-1 levels; Cell death (LDH release) (VSMC [2]; listed as [6]-shogaol): did not exhibit cytotoxicity toward VSMC; Peak plasma concentration [6]: 0.11 µg/L; Peak plasma concentration (converted) [6]: 0.40 µM; HO-1 induction in WT vs Nrf2-/- fibroblasts (Nrf2/HO-1): strictly Nrf2-dependent increase of HO-1; IC50 (VSMC [1]; PDGF-BB 20 ng/mL, 48 h, read-out: Resazurin metabolic conversion (IC50)): 2.72 µM; Antiproliferative effect in the presence of HO-1 inhibitor tin protoporphyrin IX (VSMC [1]; [6]-shogaol 3 μM, SnPP 10 μM pretreatment 1 h, resazurin conversion): lost its antiproliferative activity; also recorded: loses its antiproliferative influence on VSMC
–	COc1cc(CCC(C)=O)ccc1O [Zingerone, zingerone]	–	–	> 100	–
3.34	CCCCCCCC(=O)CCc1ccc(O)c(OC)c1 [[6]-Paradol, [6]-paradol]	n.s. (up to 30 μM)	n.s. (up to 30 μM)	5.3	–
